# Where two headings read alike, the source gives them in different places.
# Biological target: T1, mouse TMEM16A mutant K603Q (Mus musculus, UniProt Q8BHY3, K603Q)
# T1 construct: expressed in transfected cells; host or cells: HEK293T
# T1 sequence (Q8BHY3 1-960 K603Q): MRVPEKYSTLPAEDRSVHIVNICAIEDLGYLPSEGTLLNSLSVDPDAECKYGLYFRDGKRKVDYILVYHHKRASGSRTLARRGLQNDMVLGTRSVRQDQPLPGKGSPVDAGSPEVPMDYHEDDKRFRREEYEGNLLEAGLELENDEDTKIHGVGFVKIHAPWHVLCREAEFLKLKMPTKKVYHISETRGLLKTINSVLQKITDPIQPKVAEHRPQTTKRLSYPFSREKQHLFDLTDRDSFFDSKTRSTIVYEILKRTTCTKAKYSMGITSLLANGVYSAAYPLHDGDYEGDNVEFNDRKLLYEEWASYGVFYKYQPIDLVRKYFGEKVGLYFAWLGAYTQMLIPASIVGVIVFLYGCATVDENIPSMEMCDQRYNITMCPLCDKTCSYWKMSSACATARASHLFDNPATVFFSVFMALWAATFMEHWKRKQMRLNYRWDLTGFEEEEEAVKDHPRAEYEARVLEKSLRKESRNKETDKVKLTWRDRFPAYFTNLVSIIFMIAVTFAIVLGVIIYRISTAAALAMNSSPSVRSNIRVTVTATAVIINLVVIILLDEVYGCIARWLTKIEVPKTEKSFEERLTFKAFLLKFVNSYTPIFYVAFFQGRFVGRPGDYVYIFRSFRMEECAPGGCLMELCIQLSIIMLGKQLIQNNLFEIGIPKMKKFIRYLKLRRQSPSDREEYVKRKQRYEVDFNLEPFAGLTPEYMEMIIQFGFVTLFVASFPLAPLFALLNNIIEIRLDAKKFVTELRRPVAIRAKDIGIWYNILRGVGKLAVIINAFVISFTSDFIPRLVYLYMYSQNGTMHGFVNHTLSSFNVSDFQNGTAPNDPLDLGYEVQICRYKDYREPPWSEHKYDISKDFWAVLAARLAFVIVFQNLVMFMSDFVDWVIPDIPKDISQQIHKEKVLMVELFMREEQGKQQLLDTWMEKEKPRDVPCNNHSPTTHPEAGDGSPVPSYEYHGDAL
# Experiment: Inside-out patch recording of 1PBC block, mutant K603Q
# Assay type: cell-based
# Protocol: HEK293T cells (ATCC CRL-1573) were maintained in Dulbecco’s modified Eagle’s medium (DMEM; Sigma-Aldrich) supplemented with 10 U ml^−1 penicillin, 0.1 mg ml^−1 streptomycin (Sigma-Aldrich), 2 mM L-glutamine (Sigma-Aldrich), and 10% FBS (Sigma-Aldrich) in a humidified atmosphere containing 5% CO2 at 37 °C. HEK293S GnTI^− cells (ATCC CRL-3022) were maintained in HyClone HyCell TransFx-H medium (GE Healthcare) supplemented with 10 U ml^−1 penicillin, 0.1 mg ml^−1 streptomycin, 4 mM L-glutamine, 0.15% poloxamer 188 (Sigma-Aldrich), and 1% FBS in an atmosphere containing 5% CO2 at 185 rpm at 37 °C. The ac splice variant of mouse TMEM16A (UniProt ID: Q8BHY3), mouse TMEM16B (UniProt ID: Q8CFW1), or mouse TMEM16F (UniProt ID: Q6P9J9) bearing a 3C cleavage site, a Venus YFP, a Myc tag, and a Streptavidin-binding peptide (SBP) downstream of the open reading frame in a modified pcDNA3.1 vector (Invitrogen) were used as described previously[21],[31]. Mutations were introduced using a modified QuikChange method[58] and were verified by sequencing.
# HEK293T cells were transfected with 3–4 μg DNA per 6 cm Petri dish using the calcium phosphate co-precipitation method and were used within 24–96 h after transfection. Recordings were performed on inside-out patches excised from HEK293T cells expressing the construct of interest. Patch pipettes were pulled from borosilicate glass capillaries (O.D. 1.5 mm, I.D. 0.86 mm, Sutter Instrument) and were fire-polished with a microforge (Narishige) before use. Pipette resistance was typically 3–8 MΩ when filled with the recording solutions detailed below. Seal resistance was typically 4 GΩ or higher. Voltage-clamp recordings were made using Axopatch 200B, Digidata 1550, and Clampex 10.7 (Molecular Devices). Analog signals were filtered with the in-built 4-pole Bessel filter at 10 kHz and were digitized at 20 kHz. Solution exchange was achieved using a gravity-fed system through a theta glass pipette mounted on an ultra-fast piezo-driven stepper (Siskiyou). […] All recordings were performed at 20 °C.
# A symmetrical ionic condition was used throughout. Stock solution with Ca^2+-EGTA contained 150 mM NaCl, 5.99 mM Ca(OH)2, 5 mM EGTA, and 10 mM HEPES at pH 7.40. Stock solution with EGTA contained 150 mM NaCl, 5 mM EGTA, and 10 mM HEPES at pH 7.40. Free Ca^2+ concentrations were adjusted by mixing the stock solutions at the required ratios calculated using the WEBMAXC program (http://web.stanford.edu/~cpatton/webmaxcS.htm). Patch pipettes were filled with the stock solution with Ca^2+-EGTA, which has a free Ca^2+ concentration of 1 mM. 1PBC (ChemBridge) stock was reconstituted in anhydrous DMSO (Sigma-Aldrich) at 100 mM and stored at −20 °C. Working solutions with 1PBC were prepared by serial dilution. Unless otherwise stated, experiments were performed at a saturating Ca^2+ concentration as shown in Supplementary Table 1 and the primary data were corrected for current rundown as described previously[21],[25].
# Concentration-response relations, obtained from the ratio of the I-V plots before and after the application of the blocker, were fitted to the Hill equation,1 I/Imax=1/1+IC50/[blocker]^h where I/Imax is the normalized current responses, IC50 defines the concentration at which inhibition is at its half-maximum, and h is the Hill coefficient.
compound,measurement,setting,value
N#Cc1c(C(F)(F)F)cc(O)n2c1nc1ccccc12 [1PBC],IC50,"0 mV, 4 µM Ca2+",193 µM
same,remaining activity at 10 µM,"0 mV, 1PBC conc 10, read-out: relative current in 1PBC (avr)",94.4%
same,remaining activity at 30 µM,"0 mV, 1PBC conc 30, read-out: relative current in 1PBC (avr)",85.8%
same,remaining activity at 100 µM,"0 mV, 1PBC conc 100, read-out: relative current in 1PBC (avr)",66.3%
same,remaining activity at 10 µM,"10 µM 1PBC, +80 mV, saturating Ca2+ (4 µM), read-out: I/Imax",95.1%
same,remaining activity at 10 µM,"10 µM 1PBC, -80 mV, saturating Ca2+ (4 µM), read-out: I/Imax",92.8%
same,remaining activity at 30 µM,"30 µM 1PBC, +80 mV, saturating Ca2+ (4 µM), read-out: I/Imax",87%
same,remaining activity at 30 µM,"30 µM 1PBC, -80 mV, saturating Ca2+ (4 µM), read-out: I/Imax",86.9%
same,remaining activity at 100 µM,"100 µM 1PBC, +80 mV, saturating Ca2+ (4 µM), read-out: I/Imax",65.4%
same,remaining activity at 100 µM,"100 µM 1PBC, -80 mV, saturating Ca2+ (4 µM), read-out: I/Imax",66.1%
same,IC50,"20 mV, 4 µM Ca2+",206 µM
same,remaining activity at 10 µM,"20 mV, 1PBC conc 10, read-out: relative current in 1PBC (avr)",96.5%
same,remaining activity at 30 µM,"20 mV, 1PBC conc 30, read-out: relative current in 1PBC (avr)",87.2%
same,remaining activity at 100 µM,"20 mV, 1PBC conc 100, read-out: relative current in 1PBC (avr)",67.1%
same,IC50,"40 mV, 4 µM Ca2+",190 µM
same,remaining activity at 10 µM,"40 mV, 1PBC conc 10, read-out: relative current in 1PBC (avr)",94.6%
same,remaining activity at 30 µM,"40 mV, 1PBC conc 30, read-out: relative current in 1PBC (avr)",87.4%
same,remaining activity at 100 µM,"40 mV, 1PBC conc 100, read-out: relative current in 1PBC (avr)",65%
same,IC50,"60 mV, 4 µM Ca2+",196 µM
same,remaining activity at 10 µM,"60 mV, 1PBC conc 10, read-out: relative current in 1PBC (avr)",95%
same,remaining activity at 30 µM,"60 mV, 1PBC conc 30, read-out: relative current in 1PBC (avr)",86.3%
same,remaining activity at 100 µM,"60 mV, 1PBC conc 100, read-out: relative current in 1PBC (avr)",66.4%
same,log-fold IC50 (change of mutant vs WT),80 mV,1.991
same,IC50,"80 mV, 4 µM Ca2+",192 µM
same,remaining activity at 10 µM,"80 mV, 1PBC conc 10, read-out: relative current in 1PBC (avr)",95.1%
same,remaining activity at 30 µM,"80 mV, 1PBC conc 30, read-out: relative current in 1PBC (avr)",87%
same,remaining activity at 100 µM,"80 mV, 1PBC conc 100, read-out: relative current in 1PBC (avr)",65.4%
same,IC50,"100 mV, 4 µM Ca2+",197 µM
same,remaining activity at 10 µM,"100 mV, 1PBC conc 10, read-out: relative current in 1PBC (avr)",95.8%
same,remaining activity at 30 µM,"100 mV, 1PBC conc 30, read-out: relative current in 1PBC (avr)",87.5%
same,remaining activity at 100 µM,"100 mV, 1PBC conc 100, read-out: relative current in 1PBC (avr)",65.8%
same,IC50,"120 mV, 4 µM Ca2+",198 µM
same,remaining activity at 10 µM,"120 mV, 1PBC conc 10, read-out: relative current in 1PBC (avr)",97.2%
same,remaining activity at 30 µM,"120 mV, 1PBC conc 30, read-out: relative current in 1PBC (avr)",88.7%
same,remaining activity at 100 µM,"120 mV, 1PBC conc 100, read-out: relative current in 1PBC (avr)",65%
same,IC50,"140 mV, 4 µM Ca2+",196 µM
same,remaining activity at 10 µM,"140 mV, 1PBC conc 10, read-out: relative current in 1PBC (avr)",97.5%
same,remaining activity at 30 µM,"140 mV, 1PBC conc 30, read-out: relative current in 1PBC (avr)",89.1%
same,remaining activity at 100 µM,"140 mV, 1PBC conc 100, read-out: relative current in 1PBC (avr)",64.5%
same,IC50,"-20 mV, 4 µM Ca2+",180 µM
same,remaining activity at 10 µM,"-20 mV, 1PBC conc 10, read-out: relative current in 1PBC (avr)",92.4%
same,remaining activity at 30 µM,"-20 mV, 1PBC conc 30, read-out: relative current in 1PBC (avr)",84.5%
same,remaining activity at 100 µM,"-20 mV, 1PBC conc 100, read-out: relative current in 1PBC (avr)",65.5%
same,IC50,"-40 mV, 4 µM Ca2+",187 µM
same,remaining activity at 10 µM,"-40 mV, 1PBC conc 10, read-out: relative current in 1PBC (avr)",93.3%
same,remaining activity at 30 µM,"-40 mV, 1PBC conc 30, read-out: relative current in 1PBC (avr)",86.6%
same,remaining activity at 100 µM,"-40 mV, 1PBC conc 100, read-out: relative current in 1PBC (avr)",65.2%
same,IC50,"-60 mV, 4 µM Ca2+",193 µM
same,remaining activity at 10 µM,"-60 mV, 1PBC conc 10, read-out: relative current in 1PBC (avr)",93.8%
same,remaining activity at 30 µM,"-60 mV, 1PBC conc 30, read-out: relative current in 1PBC (avr)",84.7%
same,remaining activity at 100 µM,"-60 mV, 1PBC conc 100, read-out: relative current in 1PBC (avr)",67.1%
same,IC50,"-80 mV, 4 µM Ca2+",193 µM
same,remaining activity at 10 µM,"-80 mV, 1PBC conc 10, read-out: relative current in 1PBC (avr)",92.8%
same,remaining activity at 30 µM,"-80 mV, 1PBC conc 30, read-out: relative current in 1PBC (avr)",86.9%
same,remaining activity at 100 µM,"-80 mV, 1PBC conc 100, read-out: relative current in 1PBC (avr)",66.1%
same,IC50,"-100 mV, 4 µM Ca2+",199 µM
same,remaining activity at 10 µM,"-100 mV, 1PBC conc 10, read-out: relative current in 1PBC (avr)",95.1%
same,remaining activity at 30 µM,"-100 mV, 1PBC conc 30, read-out: relative current in 1PBC (avr)",86.6%
same,remaining activity at 100 µM,"-100 mV, 1PBC conc 100, read-out: relative current in 1PBC (avr)",66.7%
same,IC50,"-120 mV, 4 µM Ca2+",202 µM
same,remaining activity at 10 µM,"-120 mV, 1PBC conc 10, read-out: relative current in 1PBC (avr)",94.9%
same,remaining activity at 30 µM,"-120 mV, 1PBC conc 30, read-out: relative current in 1PBC (avr)",86.9%
same,remaining activity at 100 µM,"-120 mV, 1PBC conc 100, read-out: relative current in 1PBC (avr)",67%
same,IC50,"-140 mV, 4 µM Ca2+",216 µM
same,remaining activity at 10 µM,"-140 mV, 1PBC conc 10, read-out: relative current in 1PBC (avr)",96.6%
same,remaining activity at 30 µM,"-140 mV, 1PBC conc 30, read-out: relative current in 1PBC (avr)",88.1%
same,remaining activity at 100 µM,"-140 mV, 1PBC conc 100, read-out: relative current in 1PBC (avr)",68%
same,IC50,"K603Q, V 0 mV",193 µM
same,IC50,"K603Q, V 20 mV",206 µM
same,IC50,"K603Q, V 40 mV",190 µM
same,IC50,"K603Q, V 60 mV",196 µM
same,IC50,"K603Q, V 80 mV",192 µM
same,IC50,"K603Q, V 100 mV",197 µM
same,IC50,"K603Q, V 120 mV",198 µM
same,IC50,"K603Q, V 140 mV",196 µM
same,IC50,"K603Q, V -20 mV",180 µM
same,IC50,"K603Q, V -40 mV",187 µM
same,IC50,"K603Q, V -60 mV",193 µM
same,IC50,"K603Q, V -80 mV",193 µM
same,IC50,"K603Q, V -100 mV",199 µM
same,IC50,"K603Q, V -120 mV",202 µM
same,IC50,"K603Q, V -140 mV",216 µM
same,Lowering of the potency of block vs WT,Lys 603 to glutamine,about 100 fold

# — article PMC9120017, “Inhibition mechanism of the chloride channel TMEM16A by the pore blocker 1PBC” (Nature Communications, 2022)
